Measured values taken from ChEMBL document CHEMBL5360570, “Discovery of pyrazolo[3,4-b]pyridine derivatives as novel and potent Mps1 inhibitors for the treatment of cancer” (Eur J Med Chem, 2023).

Experiments:
[1] = test system: ALK tyrosine kinase receptor (Homo sapiens), Q9UM73 [C1156Y]; experiment: Inhibition of ALK C1156Y mutant (unknown origin) assessed as residual activity at 1 uM relative to control
[2] = Metabolic stability in human liver microsome assessed as half life preincubated for 10 mins followed by NADPH addition and measured upto 60 mins by LC-MS/MS analysis; assay type: ADME; conditions: liver microsomes, time < 70 min
[3] = AUC (0 to t) in Sprague-Dawley rat at 10 mg/kg, po measured upto 24 hrs by LC-MS/MS analysis; assay type: ADME, organism-based; parameters: time < 24 hrs, dose 10 mg/kg, route po; conditions: in vivo
MDA-MB-468 [4] = experiment: Antitumor activity against human MDA-MB-468 cells xenografted in BALB/c nude mouse assessed as tumor growth inhibition at 60 mg/kg, po administered once daily for 21 days; assay type: functional; conditions: MDA-MB-468, 504 h, time 21 day, read-out: TGI
[5] = Volume of distribution at steady state in Sprague-Dawley rat at 2 mg/kg, iv measured upto 24 hrs by LC-MS/MS analysis; assay type: ADME, organism-based; conditions: in vivo, read-out: Vdss
MCF7 = experiment: Antiproliferative activity against human MCF7 cells assessed inhibition of cell growth incubated for 72 hrs by CCK-8 assay; assay type: functional, cell-based; conditions: MCF7, 72 h
[6] = target: ALK tyrosine kinase receptor (Homo sapiens) (UniProt Q9UM73); experiment: Inhibition of ALK (unknown origin) assessed as residual activity at 1 uM relative to control
ALK-TFG (Homo sapiens) [7] = target: T1, ALK-TFG (Homo sapiens) (UniProt Q9UM73+Q92734); experiment: Inhibition of ALK-TFG (Tex4Aex20) (unknown origin) assessed as residual activity at 1 uM relative to control; assay type: protein assay
T1 sequence (Q92734 whole entry, looked up): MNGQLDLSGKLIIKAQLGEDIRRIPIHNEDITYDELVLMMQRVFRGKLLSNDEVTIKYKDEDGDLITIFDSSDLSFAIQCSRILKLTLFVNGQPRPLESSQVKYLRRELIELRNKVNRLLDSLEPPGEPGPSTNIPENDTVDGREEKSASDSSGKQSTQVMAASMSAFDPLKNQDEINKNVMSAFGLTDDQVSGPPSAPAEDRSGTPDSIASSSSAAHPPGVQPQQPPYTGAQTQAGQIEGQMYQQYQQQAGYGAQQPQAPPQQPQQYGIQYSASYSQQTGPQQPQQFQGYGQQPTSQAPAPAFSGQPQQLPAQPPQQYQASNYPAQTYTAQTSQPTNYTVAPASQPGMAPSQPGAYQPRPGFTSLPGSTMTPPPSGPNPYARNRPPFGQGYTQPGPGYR
T1 sequence (Q9UM73 whole entry, looked up): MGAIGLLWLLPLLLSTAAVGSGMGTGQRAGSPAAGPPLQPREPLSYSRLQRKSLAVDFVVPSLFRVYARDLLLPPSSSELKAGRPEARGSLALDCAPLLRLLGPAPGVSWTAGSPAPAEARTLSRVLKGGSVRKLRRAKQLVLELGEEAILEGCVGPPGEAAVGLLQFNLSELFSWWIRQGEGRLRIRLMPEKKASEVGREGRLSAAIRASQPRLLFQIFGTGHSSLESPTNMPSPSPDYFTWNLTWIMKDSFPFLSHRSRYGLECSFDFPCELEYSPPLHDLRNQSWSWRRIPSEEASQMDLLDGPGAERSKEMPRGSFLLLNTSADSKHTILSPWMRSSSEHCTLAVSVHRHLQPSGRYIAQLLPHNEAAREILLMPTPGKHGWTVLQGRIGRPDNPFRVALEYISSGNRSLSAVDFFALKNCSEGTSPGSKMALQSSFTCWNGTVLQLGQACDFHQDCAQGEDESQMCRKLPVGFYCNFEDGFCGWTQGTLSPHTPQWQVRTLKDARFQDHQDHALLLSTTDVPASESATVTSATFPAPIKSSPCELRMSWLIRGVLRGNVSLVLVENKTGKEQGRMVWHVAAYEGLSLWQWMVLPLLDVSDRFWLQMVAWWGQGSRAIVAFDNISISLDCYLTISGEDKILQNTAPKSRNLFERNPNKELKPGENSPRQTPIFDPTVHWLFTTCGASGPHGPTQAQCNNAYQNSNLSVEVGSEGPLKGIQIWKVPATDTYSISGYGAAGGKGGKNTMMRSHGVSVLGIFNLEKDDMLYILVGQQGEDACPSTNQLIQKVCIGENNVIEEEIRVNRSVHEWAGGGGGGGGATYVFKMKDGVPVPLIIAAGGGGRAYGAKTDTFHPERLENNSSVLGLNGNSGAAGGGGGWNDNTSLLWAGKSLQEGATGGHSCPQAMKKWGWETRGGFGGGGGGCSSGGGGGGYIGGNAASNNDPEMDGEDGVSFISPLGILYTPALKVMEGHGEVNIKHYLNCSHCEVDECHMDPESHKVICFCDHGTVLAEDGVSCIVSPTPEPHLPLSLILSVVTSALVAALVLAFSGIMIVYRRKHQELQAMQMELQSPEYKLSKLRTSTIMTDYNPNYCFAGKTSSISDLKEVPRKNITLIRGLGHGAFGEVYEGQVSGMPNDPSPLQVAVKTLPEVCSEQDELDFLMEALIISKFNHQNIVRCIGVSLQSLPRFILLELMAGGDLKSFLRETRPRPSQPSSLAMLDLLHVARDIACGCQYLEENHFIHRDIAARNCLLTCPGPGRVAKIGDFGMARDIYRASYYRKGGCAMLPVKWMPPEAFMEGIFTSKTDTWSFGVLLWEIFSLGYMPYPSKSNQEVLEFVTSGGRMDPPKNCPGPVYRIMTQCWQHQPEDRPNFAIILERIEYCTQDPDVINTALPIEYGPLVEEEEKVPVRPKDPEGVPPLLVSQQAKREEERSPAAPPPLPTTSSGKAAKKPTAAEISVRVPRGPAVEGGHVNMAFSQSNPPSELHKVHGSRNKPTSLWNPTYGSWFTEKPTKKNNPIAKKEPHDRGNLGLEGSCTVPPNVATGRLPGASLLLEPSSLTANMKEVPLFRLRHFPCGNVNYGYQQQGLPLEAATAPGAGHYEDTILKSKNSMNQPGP

[8] = target: Serine/threonine-protein kinase SIK2 (Homo sapiens) (UniProt Q9H0K1); experiment: Inhibition of SIK2 (unknown origin) assessed as residual activity at 1 uM relative to control
[9] = target: T2, Dual specificity protein kinase TTK (Homo sapiens, UniProt P33981); experiment: Inhibition of Mps1 (unknown origin) pretreated for 10 mins followed by substrate addition and measured after 60 mins in presence of ATP by ADP-glo kinase assay
T2 sequence (P33981 whole entry): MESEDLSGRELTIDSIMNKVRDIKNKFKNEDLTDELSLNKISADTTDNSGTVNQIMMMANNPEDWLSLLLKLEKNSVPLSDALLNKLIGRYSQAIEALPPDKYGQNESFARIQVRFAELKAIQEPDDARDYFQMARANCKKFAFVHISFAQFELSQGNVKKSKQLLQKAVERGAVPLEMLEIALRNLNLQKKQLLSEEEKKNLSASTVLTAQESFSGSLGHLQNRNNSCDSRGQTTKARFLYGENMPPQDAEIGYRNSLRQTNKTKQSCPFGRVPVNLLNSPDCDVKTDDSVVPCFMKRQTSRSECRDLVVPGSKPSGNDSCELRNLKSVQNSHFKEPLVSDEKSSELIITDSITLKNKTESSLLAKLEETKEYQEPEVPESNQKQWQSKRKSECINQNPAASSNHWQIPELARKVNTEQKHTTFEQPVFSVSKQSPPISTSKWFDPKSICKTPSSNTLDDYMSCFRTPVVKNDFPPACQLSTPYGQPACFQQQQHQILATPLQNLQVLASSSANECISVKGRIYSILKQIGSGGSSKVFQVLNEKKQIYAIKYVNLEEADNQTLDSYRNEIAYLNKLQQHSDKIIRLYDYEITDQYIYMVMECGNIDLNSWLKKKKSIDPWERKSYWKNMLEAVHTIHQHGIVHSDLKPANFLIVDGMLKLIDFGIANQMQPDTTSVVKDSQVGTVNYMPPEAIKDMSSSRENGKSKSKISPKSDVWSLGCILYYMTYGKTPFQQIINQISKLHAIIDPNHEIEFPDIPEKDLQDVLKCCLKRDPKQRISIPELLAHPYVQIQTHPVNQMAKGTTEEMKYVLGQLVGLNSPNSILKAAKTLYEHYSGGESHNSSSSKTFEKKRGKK

[10] = test system: ALK tyrosine kinase receptor (Homo sapiens), Q9UM73 [L1196M]; experiment: Inhibition of ALK L1196M mutant (unknown origin) assessed as residual activity at 1 uM relative to control
Chain of ALK tyrosine kinase receptor (Homo sapiens), Q9UM73 [L1196M] (Q9UM73 whole entry L1196M, looked up): as the sequence (Q9UM73 whole entry, looked up) above, with L1196M counted along it

[11] = test system: NPM/ALK (Nucleophosmin/ALK tyrosine kinase receptor) (Homo sapiens), Q9UM73+P06748 [F1174L]; experiment: Inhibition of ALK F1174L mutant (unknown origin)/NPM1 (unknown origin) assessed as residual activity at 1 uM relative to control; assay type: protein assay
[12] = target: Calcium/calmodulin-dependent protein kinase type II subunit alpha (Homo sapiens) (UniProt Q9UQM7); experiment: Inhibition of CaMK2alpha (unknown origin) assessed as residual activity at 1 uM relative to control
[13] = AUC (0 to infinity) in Sprague-Dawley rat at 2 mg/kg, iv measured upto 24 hrs by LC-MS/MS analysis; assay type: ADME, organism-based; parameters: dose 2 mg/kg, time < 24 hrs, route iv; conditions: in vivo
ALK-TFG (Homo sapiens) [14] = target: T1, ALK-TFG (Homo sapiens); experiment: Inhibition of ALK-TFG (unknown origin) assessed as residual activity at 1 uM relative to control; assay type: protein assay
[15] = test system: Fibroblast growth factor receptor 2 (Homo sapiens), P21802 [V564F]; experiment: Inhibition of FGFR2 V564F mutant (unknown origin) assessed as residual activity at 1 uM relative to control
Chain of Fibroblast growth factor receptor 2 (Homo sapiens), P21802 [V564F] (P21802 whole entry V564F): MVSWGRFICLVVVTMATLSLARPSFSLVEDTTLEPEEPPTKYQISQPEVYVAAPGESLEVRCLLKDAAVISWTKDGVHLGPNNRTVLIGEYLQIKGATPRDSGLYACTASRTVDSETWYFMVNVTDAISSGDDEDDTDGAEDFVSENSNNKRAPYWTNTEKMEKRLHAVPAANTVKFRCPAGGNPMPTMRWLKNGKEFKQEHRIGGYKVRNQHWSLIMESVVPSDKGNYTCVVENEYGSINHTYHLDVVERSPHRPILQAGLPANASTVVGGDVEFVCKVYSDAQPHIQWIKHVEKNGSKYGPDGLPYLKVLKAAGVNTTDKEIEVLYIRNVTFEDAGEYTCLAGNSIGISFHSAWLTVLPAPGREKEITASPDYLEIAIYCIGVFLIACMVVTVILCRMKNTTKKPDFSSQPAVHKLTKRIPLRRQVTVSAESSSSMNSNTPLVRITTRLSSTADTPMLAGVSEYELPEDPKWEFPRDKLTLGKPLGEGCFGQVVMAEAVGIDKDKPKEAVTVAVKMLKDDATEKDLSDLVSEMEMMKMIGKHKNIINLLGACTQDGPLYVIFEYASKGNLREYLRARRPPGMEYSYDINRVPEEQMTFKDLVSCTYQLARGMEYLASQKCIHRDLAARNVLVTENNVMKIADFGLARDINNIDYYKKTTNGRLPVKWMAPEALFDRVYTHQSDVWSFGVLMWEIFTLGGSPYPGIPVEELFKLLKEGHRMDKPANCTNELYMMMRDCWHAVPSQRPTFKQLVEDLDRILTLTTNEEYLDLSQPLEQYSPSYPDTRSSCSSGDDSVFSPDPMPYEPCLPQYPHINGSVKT

MDA-MB-468 [16] = experiment: Antitumor activity against human MDA-MB-468 cells xenografted in BALB/c nude mouse assessed as tumor growth inhibition at 30 mg/kg, iv administered once daily for 21 days; assay type: functional; conditions: MDA-MB-468, 504 h, time 21 day, read-out: TGI
[17] = MRT (0 to t) in Sprague-Dawley rat at 2 mg/kg, iv measured upto 24 hrs by LC-MS/MS analysis; assay type: ADME, organism-based; conditions: in vivo
[18] = target: Tyrosine-protein kinase FRK (Homo sapiens) (UniProt P42685); experiment: Inhibition of PTK5 (unknown origin) assessed as residual activity at 1 uM relative to control
Chain of Tyrosine-protein kinase FRK (Homo sapiens) (P42685 whole entry): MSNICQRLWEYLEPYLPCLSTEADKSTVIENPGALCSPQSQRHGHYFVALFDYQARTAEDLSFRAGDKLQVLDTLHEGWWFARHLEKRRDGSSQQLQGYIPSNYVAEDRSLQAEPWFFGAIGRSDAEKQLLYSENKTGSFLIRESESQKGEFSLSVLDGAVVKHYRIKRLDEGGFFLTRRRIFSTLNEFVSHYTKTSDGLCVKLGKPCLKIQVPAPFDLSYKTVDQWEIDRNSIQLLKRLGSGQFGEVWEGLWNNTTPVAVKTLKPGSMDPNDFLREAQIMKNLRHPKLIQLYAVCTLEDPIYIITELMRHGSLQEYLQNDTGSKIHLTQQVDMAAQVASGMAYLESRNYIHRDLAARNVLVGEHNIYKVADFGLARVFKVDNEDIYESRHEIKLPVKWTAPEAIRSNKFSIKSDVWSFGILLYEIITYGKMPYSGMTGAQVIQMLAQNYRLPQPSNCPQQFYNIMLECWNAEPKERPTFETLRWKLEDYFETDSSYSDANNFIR

[19] = target: Serine/threonine-protein kinase SIK1 (Homo sapiens) (UniProt P57059); experiment: Inhibition of SIK1 (unknown origin) assessed as residual activity at 1 uM relative to control
Chain of Serine/threonine-protein kinase SIK1 (Homo sapiens) (P57059 whole entry): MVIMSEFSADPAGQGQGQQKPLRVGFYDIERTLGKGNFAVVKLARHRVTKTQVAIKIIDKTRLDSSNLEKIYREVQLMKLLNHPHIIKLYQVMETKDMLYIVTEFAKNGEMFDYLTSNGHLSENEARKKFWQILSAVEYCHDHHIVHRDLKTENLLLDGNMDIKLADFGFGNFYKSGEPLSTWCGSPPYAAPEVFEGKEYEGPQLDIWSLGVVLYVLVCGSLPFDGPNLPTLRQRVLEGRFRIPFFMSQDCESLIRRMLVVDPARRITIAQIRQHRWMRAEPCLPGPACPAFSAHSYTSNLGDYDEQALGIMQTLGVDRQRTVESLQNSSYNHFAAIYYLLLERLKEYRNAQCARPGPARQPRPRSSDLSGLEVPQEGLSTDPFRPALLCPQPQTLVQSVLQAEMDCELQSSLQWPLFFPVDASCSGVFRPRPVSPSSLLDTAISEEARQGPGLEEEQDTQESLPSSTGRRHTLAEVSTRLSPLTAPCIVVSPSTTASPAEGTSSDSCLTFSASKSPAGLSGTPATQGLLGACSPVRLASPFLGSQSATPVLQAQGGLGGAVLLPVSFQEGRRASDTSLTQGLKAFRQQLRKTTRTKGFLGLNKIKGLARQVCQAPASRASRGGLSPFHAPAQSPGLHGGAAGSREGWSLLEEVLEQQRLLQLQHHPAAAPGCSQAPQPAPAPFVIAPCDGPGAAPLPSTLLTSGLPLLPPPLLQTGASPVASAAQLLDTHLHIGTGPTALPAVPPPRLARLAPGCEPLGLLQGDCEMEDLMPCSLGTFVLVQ

[20] = Tmax in Sprague-Dawley rat at 2 mg/kg, iv measured upto 24 hrs by LC-MS/MS analysis; assay type: ADME, organism-based; conditions: in vivo
[21] = Metabolic stability in human microsome assessed as intrinsic clearance preincubated for 10 mins followed by NADPH addition and measured upto 60 mins by LC-MS/MS analysis; assay type: ADME; conditions: microsomes, time < 70 min
[22] = Cmax in Sprague-Dawley rat at 10 mg/kg, po measured upto 24 hrs by LC-MS/MS analysis; assay type: ADME, organism-based; parameters: time < 24 hrs, dose 10 mg/kg, route po; conditions: in vivo
[23] = Metabolic stability in human liver microsome assessed as parent compound remaining preincubated for 10 mins followed by NADPH addition and measured at 60 mins by LC-MS/MS analysis; assay type: ADME; conditions: liver microsomes, time 70 min, read-out: Stability
[24] = target: Calcium/calmodulin-dependent protein kinase kinase 2 (Homo sapiens) (UniProt Q96RR4); experiment: Inhibition of CAMKK2 (unknown origin) assessed as residual activity at 1 uM relative to control
Chain of Calcium/calmodulin-dependent protein kinase kinase 2 (Homo sapiens) (Q96RR4 2-588 limits assumed): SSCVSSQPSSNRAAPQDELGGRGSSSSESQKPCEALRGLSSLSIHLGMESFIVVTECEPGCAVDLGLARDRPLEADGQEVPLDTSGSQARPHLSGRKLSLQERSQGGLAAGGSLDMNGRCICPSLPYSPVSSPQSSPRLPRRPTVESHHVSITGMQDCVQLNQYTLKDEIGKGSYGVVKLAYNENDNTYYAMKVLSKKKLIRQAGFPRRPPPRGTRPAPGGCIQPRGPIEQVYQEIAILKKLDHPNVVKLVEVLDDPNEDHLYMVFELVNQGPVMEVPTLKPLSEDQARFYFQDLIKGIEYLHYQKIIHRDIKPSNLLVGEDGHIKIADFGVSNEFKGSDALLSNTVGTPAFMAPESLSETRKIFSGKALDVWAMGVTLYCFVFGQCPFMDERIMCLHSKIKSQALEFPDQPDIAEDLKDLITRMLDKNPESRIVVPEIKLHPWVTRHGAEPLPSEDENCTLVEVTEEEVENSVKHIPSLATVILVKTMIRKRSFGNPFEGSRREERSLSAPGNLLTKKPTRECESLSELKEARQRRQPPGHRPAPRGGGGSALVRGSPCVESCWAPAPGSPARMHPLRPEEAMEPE

[25] = target: Focal adhesion kinase 1 (Homo sapiens) (UniProt Q05397); experiment: Inhibition of PTK2 (unknown origin) assessed as residual activity at 1 uM relative to control

Chain of ALK tyrosine kinase receptor (Homo sapiens), Q9UM73 [C1156Y] (Q9UM73 whole entry C1156Y, looked up): as the sequence (Q9UM73 whole entry, looked up) above, with C1156Y counted along it

Activity [1]: < 10%
half-life [2]: 35.2 min
AUC(0-t) at 24 h [3]: 204 ng·h/mL
Vd [5]: 0.672 L/kg
IC50 (MCF7): > 10000 nM
Activity [6]: < 10%
Activity (ALK-TFG (Homo sapiens) [7]): < 10%
Activity [8]: < 10%
IC50 [9]: 2.6 nM
Activity [10]: < 10%
Activity [11]: < 10%
Activity [12]: < 10%
AUC(0-inf) [13]: 1050 ng·h/mL
Activity (ALK-TFG (Homo sapiens) [14]): < 10%
Activity [15]: < 10%
MRT last at 24 h [17]: 20.4 min
Activity [18]: < 10%
Activity [19]: < 10%
Tmax [20]: 4.98 min
microsomal CLint [21]: 39.4 µL/min/mg
Cmax [22]: 160 ng/mL
remaining at 1 h [23]: 29.4%
Activity [24]: < 10%
Activity [25]: < 10%
SMILES: CCc1cccc(CC)c1N1CCn2cc(-c3nc(Nc4ccc(N5CCN(C(C)=O)CC5)cc4OC)nc4[nH]ncc34)cc2C1=O
inhibition in vivo at 60 mg/kg (MDA-MB-468 [4]): 34%
inhibition in vivo at 30 mg/kg (MDA-MB-468 [16]): 21%
